According to ChEMBL document CHEMBL4251632, “Synthesis and antidepressant-like activity of novel aralkyl piperazine derivatives targeting SSRI/5-HT1A/5-HT7” (Eur J Med Chem, 2018):

Key:
[1] = biological target: T1, Alpha-1A adrenergic receptor (Homo sapiens, UniProt P35348); assay: Displacement of [3H]prazosin from alpha1-adrenoceptor (unknown origin) in cerebral cortex membranes after 60 mins by TopCount scintillation counting method; format: cell membranes, Membrane
T1 sequence (P35348 whole entry): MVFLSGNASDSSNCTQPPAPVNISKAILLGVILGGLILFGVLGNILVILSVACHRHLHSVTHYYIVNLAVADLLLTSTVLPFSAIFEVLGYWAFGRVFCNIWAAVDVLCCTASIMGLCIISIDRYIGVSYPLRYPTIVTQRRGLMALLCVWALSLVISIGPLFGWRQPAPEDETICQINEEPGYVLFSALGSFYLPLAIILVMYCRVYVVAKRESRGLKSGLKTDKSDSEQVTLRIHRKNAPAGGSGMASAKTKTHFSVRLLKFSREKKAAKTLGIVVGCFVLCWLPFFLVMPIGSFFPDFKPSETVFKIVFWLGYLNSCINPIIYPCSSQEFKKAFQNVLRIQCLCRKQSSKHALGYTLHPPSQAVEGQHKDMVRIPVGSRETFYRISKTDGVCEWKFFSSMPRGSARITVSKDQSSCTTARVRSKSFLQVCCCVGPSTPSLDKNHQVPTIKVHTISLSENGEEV

Rattus norvegicus [2] = assay: Apparent clearance during terminal phase in Sprague-Dawley rat at 0.5 mg/kg, iv administered as single dose by LC-MS/MS analysis; format: ADME, organism-based; conditions: in vivo
[3] = Apparent terminal half life in Sprague-Dawley rat at 2 mg/kg, po administered as single dose by LC-MS/MS analysis; format: ADME, organism-based; conditions: in vivo, read-out: betat1/2(app) (converted)
[4] = AUC (0 to infinity) in Sprague-Dawley rat at 2 mg/kg, po administered as single dose by LC-MS/MS analysis; format: ADME, organism-based; set-up: dose 2 mg/kg, time infinity, route oral; conditions: in vivo
[5] = Plasma concentration in Sprague-Dawley rat at 2 mg/kg, po administered as single dose measured after 30 mins by LC-MS/MS analysis; format: ADME, organism-based
[6] = Tmax in Sprague-Dawley rat at 2 mg/kg, po administered as single dose by LC-MS/MS analysis; format: ADME, organism-based; conditions: in vivo
[7] = Oral bioavailability in Sprague-Dawley rat at 2 mg/kg administered as single dose by LC-MS/MS analysis; format: ADME, organism-based; conditions: in vivo
[8] = biological target: Sodium-dependent serotonin transporter (Rattus norvegicus) (UniProt P31652); assay: Inhibition of [3H]serotonin reuptake in rat brain synaptosomes SERT at 10 uM after 15 mins by TopCount scintillation counting method relative to control; format: subcellular
Mus musculus [9] = assay: Antidepressant-like activity in po dosed mouse assessed as reduction in immobility time administered once daily for 7 days measured for 5 mins at 1 hr post last dose by tail suspension test; format: functional, organism-based
[10] = Plasma concentration in Sprague-Dawley rat at 0.5 mg/kg, iv administered as single dose measured after 15 mins by LC-MS/MS analysis; format: ADME, organism-based
Rattus norvegicus [11] = assay: Apparent volume of distribution during terminal phase in Sprague-Dawley rat at 0.5 mg/kg, iv administered as single dose by LC-MS/MS analysis; format: ADME, organism-based; conditions: in vivo
[12] = Plasma concentration in Sprague-Dawley rat at 2 mg/kg, po administered as single dose measured after 15 mins by LC-MS/MS analysis; format: ADME, organism-based
[13] = biological target: Sodium-dependent serotonin transporter (Rattus norvegicus, UniProt P31652); assay: Inhibition of [3H]serotonin reuptake in rat brain synaptosomes SERT after 15 mins by TopCount scintillation counting method; format: subcellular
Mus musculus [14] = assay: Antidepressant-like activity in mouse assessed as reduction in immobility time at 40 mg/kg/day, po once daily for 7 days measured for last 4 mins of 6 mins test at 1 hr post last dose by forced swim test relative to control; format: functional; set-up: scale not given: the % may be the effect or the level left
[15] = Plasma concentration in Sprague-Dawley rat at 2 mg/kg, po administered as single dose measured after 2 hrs by LC-MS/MS analysis; format: ADME, organism-based
[16] = Plasma concentration in Sprague-Dawley rat at 0.5 mg/kg, iv administered as single dose measured after 8 hrs by LC-MS/MS analysis; format: ADME, organism-based
[17] = biological target: Voltage-gated inwardly rectifying potassium channel KCNH2 (Homo sapiens, UniProt Q12809); assay: Inhibition of human ERG expressed in CHO-K1 cells assessed as reduction in tail current amplitude at -80 mV holding potential after 2 mins by path clamp assay; format: cell-based
[18] = Plasma concentration in Sprague-Dawley rat at 0.5 mg/kg, iv administered as single dose measured after 5 mins by LC-MS/MS analysis; format: ADME, organism-based
[19] = biological target: 5-hydroxytryptamine receptor 7 (Homo sapiens, UniProt P34969); assay: Displacement of [3H]LSD from recombinant human 5-HT7 receptor expressed in CHO cell membranes at 10 uM after 120 mins by TopCount scintillation counting method relative to control
5-hydroxytryptamine receptor 7, sequence (P34969 whole entry): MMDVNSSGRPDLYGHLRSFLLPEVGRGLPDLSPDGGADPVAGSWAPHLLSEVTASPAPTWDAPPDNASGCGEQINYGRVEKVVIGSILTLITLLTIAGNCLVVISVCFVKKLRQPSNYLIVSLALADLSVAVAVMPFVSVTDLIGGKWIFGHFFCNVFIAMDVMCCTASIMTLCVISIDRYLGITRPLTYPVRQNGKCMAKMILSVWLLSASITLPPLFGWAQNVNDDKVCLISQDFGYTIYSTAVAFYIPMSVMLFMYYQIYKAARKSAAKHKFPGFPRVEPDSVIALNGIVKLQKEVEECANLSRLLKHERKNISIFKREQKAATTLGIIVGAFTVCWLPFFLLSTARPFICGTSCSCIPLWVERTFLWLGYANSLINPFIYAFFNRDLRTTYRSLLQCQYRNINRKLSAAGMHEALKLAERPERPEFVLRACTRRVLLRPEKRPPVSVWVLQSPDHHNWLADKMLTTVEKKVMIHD

Voltage-gated inwardly rectifying potassium channel KCNH2, sequence (Q12809 whole entry): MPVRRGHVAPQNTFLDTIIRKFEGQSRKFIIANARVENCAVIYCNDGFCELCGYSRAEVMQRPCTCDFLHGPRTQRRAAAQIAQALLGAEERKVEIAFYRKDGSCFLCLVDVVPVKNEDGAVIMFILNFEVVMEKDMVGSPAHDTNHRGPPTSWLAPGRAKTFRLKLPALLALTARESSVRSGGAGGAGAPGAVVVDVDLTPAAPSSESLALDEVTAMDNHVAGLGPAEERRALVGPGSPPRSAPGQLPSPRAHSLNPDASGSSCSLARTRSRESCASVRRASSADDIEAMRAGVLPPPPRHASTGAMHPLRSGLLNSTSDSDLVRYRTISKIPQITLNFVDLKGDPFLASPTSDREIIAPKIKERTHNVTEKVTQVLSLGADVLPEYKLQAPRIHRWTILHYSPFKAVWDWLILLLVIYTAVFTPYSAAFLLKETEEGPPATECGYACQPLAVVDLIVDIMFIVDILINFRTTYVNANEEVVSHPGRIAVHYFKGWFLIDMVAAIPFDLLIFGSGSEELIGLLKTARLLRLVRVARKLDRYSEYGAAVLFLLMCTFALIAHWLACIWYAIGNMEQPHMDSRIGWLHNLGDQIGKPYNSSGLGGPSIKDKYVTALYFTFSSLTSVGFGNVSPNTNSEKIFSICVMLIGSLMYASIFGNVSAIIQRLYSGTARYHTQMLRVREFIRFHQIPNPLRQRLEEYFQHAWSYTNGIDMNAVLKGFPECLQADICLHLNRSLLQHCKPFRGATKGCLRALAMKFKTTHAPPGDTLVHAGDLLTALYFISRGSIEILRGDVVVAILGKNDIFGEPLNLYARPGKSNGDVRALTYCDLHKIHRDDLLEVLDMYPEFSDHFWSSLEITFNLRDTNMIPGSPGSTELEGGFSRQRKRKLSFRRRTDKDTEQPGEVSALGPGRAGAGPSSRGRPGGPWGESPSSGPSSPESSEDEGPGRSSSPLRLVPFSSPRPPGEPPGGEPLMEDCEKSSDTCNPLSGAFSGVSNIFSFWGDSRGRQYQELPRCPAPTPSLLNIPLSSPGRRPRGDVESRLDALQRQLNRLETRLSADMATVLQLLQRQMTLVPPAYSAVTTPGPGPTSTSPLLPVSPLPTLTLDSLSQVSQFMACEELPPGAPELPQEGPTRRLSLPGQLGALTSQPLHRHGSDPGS
Sodium-dependent serotonin transporter (Rattus norvegicus), sequence (P31652 whole entry): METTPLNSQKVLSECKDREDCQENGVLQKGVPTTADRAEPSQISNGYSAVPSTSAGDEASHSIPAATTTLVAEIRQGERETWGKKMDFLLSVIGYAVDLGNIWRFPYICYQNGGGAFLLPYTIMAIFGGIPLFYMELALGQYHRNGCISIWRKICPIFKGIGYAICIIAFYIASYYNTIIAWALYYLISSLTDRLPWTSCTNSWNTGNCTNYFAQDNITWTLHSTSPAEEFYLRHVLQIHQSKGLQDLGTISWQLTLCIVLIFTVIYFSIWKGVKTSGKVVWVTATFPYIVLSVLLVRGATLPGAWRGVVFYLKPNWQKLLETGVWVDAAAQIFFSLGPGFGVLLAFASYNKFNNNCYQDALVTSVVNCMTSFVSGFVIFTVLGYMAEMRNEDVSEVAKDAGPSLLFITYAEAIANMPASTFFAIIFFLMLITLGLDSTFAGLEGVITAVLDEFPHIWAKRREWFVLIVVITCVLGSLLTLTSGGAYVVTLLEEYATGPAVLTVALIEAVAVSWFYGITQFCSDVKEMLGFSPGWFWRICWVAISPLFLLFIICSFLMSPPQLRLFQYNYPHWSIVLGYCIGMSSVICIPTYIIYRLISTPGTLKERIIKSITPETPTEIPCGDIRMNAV
Sodium-dependent serotonin transporter, sequence (P31652 whole entry): as above

Ki [1]: 28 nM
CLz/F (Rattus norvegicus [2]): 25 mL/min/kg
half-life [3]: 6.1 h
AUC(0-inf) [4]: 898 ng·h/mL
concentration at 0.5 h [5]: 58.3 ng/mL
Tmax [6]: 1.7 h
bioavailability [7]: 68.5%
inhibition [8]: > 90%
concentration at […] [10]: 149 ng/mL
Vz/F (Rattus norvegicus [11]): 7.4 L/kg
concentration at […] [12]: 20.4 ng/mL
IC50 [13]: 25 nM
concentration at 2 h [15]: 76.7 ng/mL
concentration at 8 h [16]: 8.84 ng/mL
concentration at 5 min [18]: 342 ng/mL
inhibition [19]: > 90%
SMILES: Fc1ccc(N2CCN(CCCc3c[nH]c4ccc(F)cc34)CC2)c(-c2ccccc2)c1
Activity (Mus musculus [9]): Dose-dependent effect
Activity (Mus musculus [14]): 54%
IC50 [17]: 16700 nM
